System: 935938-334-R-J1-PDC complex spheroid viability
Assay: Anticancer human tumor 935938-334-R-J1-PDC patient-derived small intestine adenocarcinoma cell line growth inhibition [POLQ]
Settings: for IC50: curve of first compound; for viability, T/C: stronger effect = lower value
Outline: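 Patient-derived tumour cells were co-cultured with HUVEC and mesenchymal stem cells as multicellular spheroids at 37 °C. They were treated with POLQ inhibitors (novobiocin, ART-558, RP6685) alone or combined with other agents. Top concentrations were at or near clinical Cmax (otherwise 10 microM; SN-38 at 1 microM), decreasing in half-log steps.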

[1] = second compound 0.0316 µM, first compound 0.0316 µM
[2] = second compound 0.0316 µM, first compound 0.1 µM
[3] = second compound 0.0316 µM, first compound 0.316 µM
[4] = second compound 0.0316 µM, first compound 1 µM
[5] = second compound 0.1 µM, first compound 0.0316 µM
[6] = second compound 0.1 µM, first compound 0.1 µM
[7] = second compound 0.1 µM, first compound 0.316 µM
[8] = second compound 0.1 µM, first compound 1 µM
[9] = second compound 0.316 µM, first compound 0.0316 µM
[10] = second compound 0.316 µM, first compound 0.1 µM
[11] = second compound 0.316 µM, first compound 0.316 µM
[12] = second compound 0.316 µM, first compound 1 µM
[13] = second compound 1 µM, first compound 0.0316 µM
[14] = second compound 1 µM, first compound 0.1 µM
[15] = second compound 1 µM, first compound 0.316 µM
[16] = second compound 1 µM, first compound 1 µM
[17] = second compound 3.16 µM, first compound 0.0316 µM
[18] = second compound 3.16 µM, first compound 0.1 µM
[19] = second compound 3.16 µM, first compound 0.316 µM
[20] = second compound 3.16 µM, first compound 1 µM
[21] = second compound 10 µM, first compound 0.0316 µM
[22] = second compound 10 µM, first compound 0.1 µM
[23] = second compound 10 µM, first compound 0.316 µM
[24] = second compound 10 µM, first compound 1 µM
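Also: spheroids exposed to drugs for seven days before viability read.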
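For viability, T/C in this document: 100% = DMSO vehicle control wells.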

What does the source list for `CC(=O)O[C@H]1C(=O)[C@@]2(C)[C@H]([C@H](OC(=O)c3ccccc3)[C@]3(O)C[C@H](OC(=O)[C@H](O)[C@@H](NC(=O)c4ccccc4)c4ccccc4)C(C)=C1C3(C)C)[C@]1(OC(C)=O)CO[C@@H]1C[C@@H]2O` + COC1C(OC(N)=O)C(O)C(Oc2ccc3c(O)c(NC(=O)c4ccc(O)c(CC=C(C)C)c4)c(=O)oc3c2C)OC1(C)C?
IC50 (second compound 0.0316 µM): < 9.49 nM; IC50 (second compound 0.1 µM): < 9.49 nM; IC50 (second compound 0.316 µM): < 9.49 nM; IC50 (second compound 1 µM): < 9.49 nM; IC50 (second compound 3.16 µM): < 9.49 nM; IC50 (second compound 10 µM): < 9.49 nM; viability, T/C (second compound 0.0316 µM, first compound 0.00949 µM): 33.5%; viability, T/C (second compound 0.0316 µM, first compound 0.03 µM): 21.4%; viability, T/C (second compound 0.0316 µM, first compound 0.0949 µM): 14.8%; viability, T/C (second compound 0.0316 µM, first compound 0.3 µM): 16.4%; viability, T/C (second compound 0.0316 µM, first compound 0.949 µM): 16.6%; viability, T/C (second compound 0.0316 µM, first compound 3 µM): 19.3%; viability, T/C (second compound 0.1 µM, first compound 0.00949 µM): 35.7%; viability, T/C (second compound 0.1 µM, first compound 0.03 µM): 21.5%; viability, T/C (second compound 0.1 µM, first compound 0.0949 µM): 16.9%; viability, T/C (second compound 0.1 µM, first compound 0.3 µM): 17.5%; viability, T/C (second compound 0.1 µM, first compound 0.949 µM): 16.5%; viability, T/C (second compound 0.1 µM, first compound 3 µM): 18.1%; viability, T/C (second compound 0.316 µM, first compound 0.00949 µM): 37.9%; viability, T/C (second compound 0.316 µM, first compound 0.03 µM): 18.4%; viability, T/C (second compound 0.316 µM, first compound 0.0949 µM): 16.6%; viability, T/C (second compound 0.316 µM, first compound 0.3 µM): 13.8%; viability, T/C (second compound 0.316 µM, first compound 0.949 µM): 17.9%; viability, T/C (second compound 0.316 µM, first compound 3 µM): 18.2%; viability, T/C (second compound 1 µM, first compound 0.00949 µM): 34.6%; viability, T/C (second compound 1 µM, first compound 0.03 µM): 19.5%; viability, T/C (second compound 1 µM, first compound 0.0949 µM): 17.4%; viability, T/C (second compound 1 µM, first compound 0.3 µM): 17.2%; viability, T/C (second compound 1 µM, first compound 0.949 µM): 16.2%; viability, T/C (second compound 1 µM, first compound 3 µM): 16.6%; viability, T/C (second compound 3.16 µM, first compound 0.00949 µM): 32.8%; viability, T/C (second compound 3.16 µM, first compound 0.03 µM): 21.3%; viability, T/C (second compound 3.16 µM, first compound 0.0949 µM): 14.9%; viability, T/C (second compound 3.16 µM, first compound 0.3 µM): 18.2%; viability, T/C (second compound 3.16 µM, first compound 0.949 µM): 17.5%; viability, T/C (second compound 3.16 µM, first compound 3 µM): 18.4%; viability, T/C (second compound 10 µM, first compound 0.00949 µM): 36.6%; viability, T/C (second compound 10 µM, first compound 0.03 µM): 19.9%; viability, T/C (second compound 10 µM, first compound 0.0949 µM): 14.4%; viability, T/C (second compound 10 µM, first compound 0.3 µM): 16.6%; viability, T/C (second compound 10 µM, first compound 0.949 µM): 14.6%; viability, T/C (second compound 10 µM, first compound 3 µM): 16.4%

Which IC50 (second compound 0.0316 µM) does the source give for `CCc1c2c(nc3ccc(O)cc13)-c1cc3c(c(=O)n1C2)COC(=O)[C@]3(O)CC` + Cc1cccc(N(C)C(=O)C2C(O)CCN2c2nc(C)cc(C(F)(F)F)c2C#N)c1 here?
Its IC50 is 15.8 nM.

What about the IC50 (second compound 0.1 µM) of the same compound?
The IC50 was 19.9 nM.

What about the IC50 (second compound 0.316 µM) of the same compound?
The IC50 was 24.5 nM.

And the IC50 (second compound 1 µM)?
The IC50 was 22.7 nM.

What about the IC50 (second compound 3.16 µM) of the same compound?
The IC50 was 24.3 nM.

What about the IC50 (second compound 10 µM) of the same compound?
The IC50 was 26.1 nM.

And the viability, T/C (second compound 0.0316 µM, first compound 0.00316 µM)?
Its viability, T/C is 96.3%.

And the viability, T/C (second compound 0.0316 µM, first compound 0.01 µM)?
Its viability, T/C is 55.6%.

And the viability, T/C [1]?
The viability, T/C was 41.4%.

What about the viability, T/C [2] of the same compound?
The viability, T/C was 33.8%.

What about the viability, T/C [3] of the same compound?
Its viability, T/C is 36.6%.

What about the viability, T/C [4] of the same compound?
Its viability, T/C is 29.1%.

And the viability, T/C (second compound 0.1 µM, first compound 0.00316 µM)?
The viability, T/C was 98.1%.

And the viability, T/C (second compound 0.1 µM, first compound 0.01 µM)?
Its viability, T/C is 66.6%.

And the viability, T/C [5]?
Its viability, T/C is 38.9%.

And the viability, T/C [6]?
Its viability, T/C is 32.5%.

What about the viability, T/C [7] of the same compound?
Its viability, T/C is 33.4%.

What about the viability, T/C [8] of the same compound?
The viability, T/C was 32.4%.

What about the viability, T/C (second compound 0.316 µM, first compound 0.00316 µM) of the same compound?
Its viability, T/C is 109%.

And the viability, T/C (second compound 0.316 µM, first compound 0.01 µM)?
Its viability, T/C is 83%.

And the viability, T/C [9]?
The viability, T/C was 40.7%.

What about the viability, T/C [10] of the same compound?
Its viability, T/C is 34%.

And the viability, T/C [11]?
The viability, T/C was 38.3%.

And the viability, T/C [12]?
Its viability, T/C is 35.4%.

And the viability, T/C (second compound 1 µM, first compound 0.00316 µM)?
The viability, T/C was 82.9%.

What about the viability, T/C (second compound 1 µM, first compound 0.01 µM) of the same compound?
Its viability, T/C is 63.2%.

What about the viability, T/C [13] of the same compound?
The viability, T/C was 43.5%.

What about the viability, T/C [14] of the same compound?
The viability, T/C was 36.6%.

And the viability, T/C [15]?
Its viability, T/C is 33.3%.

And the viability, T/C [16]?
Its viability, T/C is 29.2%.

What about the viability, T/C (second compound 3.16 µM, first compound 0.00316 µM) of the same compound?
Its viability, T/C is 87.6%.

And the viability, T/C (second compound 3.16 µM, first compound 0.01 µM)?
The viability, T/C was 85.3%.

And the viability, T/C [17]?
Its viability, T/C is 39.4%.

What about the viability, T/C [18] of the same compound?
Its viability, T/C is 37.7%.

And the viability, T/C [19]?
The viability, T/C was 39.3%.

What about the viability, T/C [20] of the same compound?
Its viability, T/C is 31.7%.

And the viability, T/C (second compound 10 µM, first compound 0.00316 µM)?
The viability, T/C was 115%.

What about the viability, T/C (second compound 10 µM, first compound 0.01 µM) of the same compound?
The viability, T/C was 66.9%.

And the viability, T/C [21]?
The viability, T/C was 43.2%.

What about the viability, T/C [22] of the same compound?
The viability, T/C was 45.9%.

And the viability, T/C [23]?
Its viability, T/C is 35%.

What about the viability, T/C [24] of the same compound?
The viability, T/C was 31.5%.

What does the source list for `C=CC(=O)N1CCN(c2nc(=O)n(-c3c(C)ccnc3C(C)C)c3nc(-c4c(O)cccc4F)c(F)cc23)C(C)C1` (stereo unspecified) + Cc1cccc(N(C)C(=O)C2C(O)CCN2c2nc(C)cc(C(F)(F)F)c2C#N)c1?
IC50 (second compound 0.0316 µM): > 10000 nM; IC50 (second compound 0.1 µM): > 10000 nM; IC50 (second compound 0.316 µM): > 10000 nM; IC50 (second compound 1 µM): > 10000 nM; IC50 (second compound 3.16 µM): > 10000 nM; IC50 (second compound 10 µM): > 10000 nM; viability, T/C [1]: 94.3%; viability, T/C [2]: 98.4%; viability, T/C [3]: 77%; viability, T/C [4]: 101%; viability, T/C (second compound 0.0316 µM, first compound 3.16 µM): 88.1%; viability, T/C (second compound 0.0316 µM, first compound 10 µM): 109%; viability, T/C [5]: 116%; viability, T/C [6]: 97.8%; viability, T/C [7]: 91.3%; viability, T/C [8]: 113%; viability, T/C (second compound 0.1 µM, first compound 3.16 µM): 90.4%; viability, T/C (second compound 0.1 µM, first compound 10 µM): 70.1%; viability, T/C [9]: 76.7%; viability, T/C [10]: 80.9%; viability, T/C [11]: 105%; viability, T/C [12]: 100%; viability, T/C (second compound 0.316 µM, first compound 3.16 µM): 81.2%; viability, T/C (second compound 0.316 µM, first compound 10 µM): 106%; viability, T/C [13]: 85.8%; viability, T/C [14]: 111%; viability, T/C [15]: 82.7%; viability, T/C [16]: 108%; viability, T/C (second compound 1 µM, first compound 3.16 µM): 92.2%; viability, T/C (second compound 1 µM, first compound 10 µM): 99.7%; viability, T/C [17]: 96%; viability, T/C [18]: 95%; viability, T/C [19]: 74.6%; viability, T/C [20]: 96.3%; viability, T/C (second compound 3.16 µM, first compound 3.16 µM): 102%; viability, T/C (second compound 3.16 µM, first compound 10 µM): 79.1%; viability, T/C [21]: 77.8%; viability, T/C [22]: 80.6%; viability, T/C [23]: 64.8%; viability, T/C [24]: 94.9%; viability, T/C (second compound 10 µM, first compound 3.16 µM): 118%; viability, T/C (second compound 10 µM, first compound 10 µM): 107%
